The values that follow come from patent publication US6906061B2, “Pharmaceutical agent containing Rho kinase inhibitor” (Mitsubishi Pharma Corporation, priority 1996, dated 2005).

The test system of data set [1] is hind limb skin blood flow. The data set is described as follows: Peripheral blood flow increasing action in STZ-induced diabetic rats. Type of data set: in vivo, rat. Particulars: intravenous. The method, then:
Peripheral Blood Flow Increasing Action
Streptozotocin (STZ, 65 mg/kg) was intravenously injected to male SD rats (body weight 200-300 g) to prepare diabetic rats. One month later, STZ-induced diabetic rats were anesthetized with pentobarbital sodium and the blood flow in the hind limb skin was measured with laser blood flowmeter (ALF21R, Advance). The test compound was intravenously administered via catheter dwelled in the carotid arteries, and hind limb skin blood flow increasing action was observed. The blood flow increasing action of the test compound was expressed by increase percentage from the blood flow before administration.

Structures can show the parent of a compound that is named as a salt.

In the case of `O=C(Nc1ccnc2[nH]ccc12)C1CCNCC1` (as salt: hydrochloride) (hydrate or solvate) [Compound 193, N-(1H-pyrrolo[2,3-b]pyridin-4-yl)-4-piperidinecarboxamide], the melting point is 273 °C (dec.).

Take `O=C(Nc1ccnc2[nH]ncc12)C1CCNCC1` (as salt: hydrochloride) (hydrate or solvate) [Compound 194, N-(1H-pyrazolo[3,4-b]pyridin-4-yl)-4-piperidinecarboxamide]: the melting point was 277 °C (dec.).

For the molecule `O=C(Nc1ccnc2c1CCN2)C1CCNCC1` (as salt: hydrochloride) (hydrate or solvate) [Compound 197, N-(2,3-dihydro-1H-pyrrolo[2,3-b]pyridin-4-yl)-4-piperidinecarboxamide], the melting point is 235 °C (dec.).

Consider `O=C(Nc1ccnc2[nH]ccc12)C1CCN(CCc2ccccc2)CC1` (as salt: hydrochloride) (hydrate or solvate) [Compound 198, N-(1H-pyrrolo[2,3-b]pyridin-4-yl)-1-(2-phenylethyl)-4-piperidinecarboxamide], for which the melting point is 272 °C (dec.).

Regarding `N=C(N)N1CCC(C(=O)Nc2ccnc3[nH]ccc23)CC1` (as salt: hydrochloride) (hydrate or solvate) [Compound 199, N-(1H-pyrrolo[2,3-b]pyridin-4-yl)-1-amidino-4-piperidinecarboxamide], the melting point was 246 °C (dec.).

Take `O=C(Nc1ccnc2[nH]ccc12)C1CCN(Cc2ccccc2)CC1` (as salt: hydrochloride) (hydrate or solvate) [Compound 201, N-(1H-pyrrolo[2,3-b]pyridin-4-yl)-1-benzyl-4-piperidinecarboxamide]: the melting point was 260 °C (dec.).

Regarding `O=C(Nc1ccnc2[nH]ncc12)C1CCN(CCc2ccccc2)CC1` (as salt: hydrochloride) (hydrate or solvate) [Compound 202, N-(1H-pyrazolo[3,4-b]pyridin-4-yl)-1-(2-phenylethyl)-4-piperidinecarboxamide], the melting point was 259 to 261 °C (dec.).

As for `O=C(Nc1ccnc2[nH]ncc12)C1CCN(CCCc2ccccc2)CC1` (as salt: hydrochloride) (hydrate or solvate) [Compound 203, N-(1H-pyrazolo[3,4-b]pyridin-4-yl)-1-(3-phenylpropyl)-4-piperidinecarboxamide], the melting point was 240 to 244 °C (dec.).

`O=C(Nc1ccnc2[nH]ccc12)C1CCN(CCCc2ccccc2)CC1` (as salt: hydrochloride) [Compound 200, N-(1H-pyrrolo[2,3-b]pyridin-4-yl)-1-(3-phenylpropyl)-4-piperidinecarboxamide]: the melting point was 276 °C (dec.).

The molecule `COCn1ncc2c(NC(=O)C3CCNCC3)ccnc21` (hydrate or solvate) [Compound 196, N-(1-methoxymethyl-1H-pyrazolo[3,4-b]pyridin-4-yl)-4-piperidinecarboxamide] displayed a melting point of 240 to 241 °C.

`C[C@@H](N)c1ccc(C(=O)Nc2ccnc3[nH]ncc23)cc1` [Compound 166.2HCl.H2O, (R)-(+)-N-(1H-pyrazolo[3,4-b]pyridin-4-yl)-4-(1-aminoethyl)benzamide]: the “Increase in skin blood flow ± standard error (%)” value came to 143.2 ± 25.4% in data set [1] (0.3 μg) and 165.9 ± 42.5% in data set [1] (1 μg).
